# From ChEMBL document CHEMBL1201862, “PubChem BioAssay data set” (2004)
# Calls of active or inactive are those of the source. Where a SMILES comes first, the peptide text is derived from it. Square brackets hold non-standard residues; d marks the D form. Peptide text beside a SMILES is read from it.
# What was measured:
# [1] = test system: Streptococcus sp. 'group A'; test: Streptococcus pyogenes SK(-)GAS viability under kanamycin – luminescence, BacTiterGlo, confirmation, counter-screen for streptokinase expression inhibitor project, dose response (AID 1900); assay type: functional, organism-based
# Streptokinase A = molecular target: T1, Streptokinase A (Streptococcus pyogenes serotype M1, UniProt P10520); test: viability-normalized secreted streptokinase activity reduction – plasminogen activation absorbance, OD405, dose response (AID 1914); assay type: functional, Streptococcus pyogenes M1 GAS;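 also: secreted streptokinase activity via plasminogen activation per viability signal from cell pellet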
# T1 sequence (P10520 whole entry): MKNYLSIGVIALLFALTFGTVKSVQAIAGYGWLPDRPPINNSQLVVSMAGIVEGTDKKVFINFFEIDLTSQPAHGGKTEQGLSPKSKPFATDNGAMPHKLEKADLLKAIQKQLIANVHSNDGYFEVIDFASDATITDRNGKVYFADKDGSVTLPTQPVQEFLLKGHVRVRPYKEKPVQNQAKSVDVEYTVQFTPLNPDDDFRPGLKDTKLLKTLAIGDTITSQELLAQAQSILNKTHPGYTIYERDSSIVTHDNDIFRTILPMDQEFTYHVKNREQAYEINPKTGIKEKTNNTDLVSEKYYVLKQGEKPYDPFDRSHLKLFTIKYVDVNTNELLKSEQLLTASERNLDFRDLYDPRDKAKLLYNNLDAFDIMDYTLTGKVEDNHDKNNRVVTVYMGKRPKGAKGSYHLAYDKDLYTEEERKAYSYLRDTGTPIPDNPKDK
# Streptococcus = test: GAS UMAA2166 growth inhibition – luminescence, BacTiterGlo, counter-screen for streptokinase expression inhibitor project, dose response (AID 1915); assay type: functional, organism-based;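 also: potency for reduction of bacterial viability or growth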
# [2] = molecular target: T2, Short transient receptor potential channel 4 (Mus musculus, UniProt Q9QUQ5); test: block of DAMGO-driven TRPC4 calcium entry – cell-based, HEK293 TRPC4/mu-opioid, Fluo-4 calcium, dose response (AID 434942); assay type: functional;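 also: potency of inhibitors blocking the TRPC4 calcium response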
# T2 sequence (Q9QUQ5 whole entry): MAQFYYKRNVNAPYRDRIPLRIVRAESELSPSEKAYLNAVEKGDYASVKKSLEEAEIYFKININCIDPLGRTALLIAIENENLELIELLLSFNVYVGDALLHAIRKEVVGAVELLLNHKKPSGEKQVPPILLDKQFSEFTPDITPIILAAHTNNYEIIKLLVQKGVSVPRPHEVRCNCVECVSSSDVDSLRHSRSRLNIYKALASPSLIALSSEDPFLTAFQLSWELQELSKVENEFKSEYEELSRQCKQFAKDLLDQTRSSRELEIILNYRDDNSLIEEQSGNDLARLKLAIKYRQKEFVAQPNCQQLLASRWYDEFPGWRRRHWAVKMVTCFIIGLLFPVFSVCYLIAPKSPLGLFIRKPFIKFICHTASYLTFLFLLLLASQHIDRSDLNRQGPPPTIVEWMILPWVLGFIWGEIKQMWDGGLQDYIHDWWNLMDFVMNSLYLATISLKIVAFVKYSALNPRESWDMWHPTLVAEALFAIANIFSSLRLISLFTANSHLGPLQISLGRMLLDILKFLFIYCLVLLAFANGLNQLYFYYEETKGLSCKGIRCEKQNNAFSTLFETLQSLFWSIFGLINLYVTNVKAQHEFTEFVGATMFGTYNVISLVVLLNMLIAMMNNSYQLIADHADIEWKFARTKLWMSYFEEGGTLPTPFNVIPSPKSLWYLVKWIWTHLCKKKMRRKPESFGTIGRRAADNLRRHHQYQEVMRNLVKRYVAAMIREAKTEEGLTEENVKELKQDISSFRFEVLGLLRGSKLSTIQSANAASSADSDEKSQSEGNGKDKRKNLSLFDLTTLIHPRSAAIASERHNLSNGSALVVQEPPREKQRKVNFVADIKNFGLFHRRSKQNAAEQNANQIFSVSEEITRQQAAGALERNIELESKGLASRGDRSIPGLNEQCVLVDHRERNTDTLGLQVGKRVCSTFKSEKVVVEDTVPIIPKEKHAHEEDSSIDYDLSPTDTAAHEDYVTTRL
# [3] = molecular target: Induced myeloid leukemia cell differentiation protein Mcl-1 (Homo sapiens, UniProt Q07820); assay type: functional
# Genome polyprotein = Genome polyprotein (dengue virus type 2, UniProt P29990); test: flavivirus cap methylation enzyme inhibition – biochemical, confirmation dose response, primary screen (AID 588689); assay type: functional
# [4] = molecular target: T3, Carboxy-terminal domain RNA polymerase II polypeptide A small phosphatase 1 (Homo sapiens, UniProt Q9GZU7); test: CTDSP1 inhibitors, concentration-response, biochemical, absorbance readout, ultra-high-throughput screen actives (AID 540297); assay type: functional
# T3 sequence (Q9GZU7 whole entry): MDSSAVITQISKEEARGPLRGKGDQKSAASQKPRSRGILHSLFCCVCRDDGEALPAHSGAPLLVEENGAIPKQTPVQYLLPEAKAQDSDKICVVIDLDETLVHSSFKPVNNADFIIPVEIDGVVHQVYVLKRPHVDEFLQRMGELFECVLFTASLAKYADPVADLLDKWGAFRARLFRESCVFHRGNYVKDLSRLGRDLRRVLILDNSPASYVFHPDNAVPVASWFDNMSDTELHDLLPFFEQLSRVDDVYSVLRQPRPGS
# [5] = molecular target: T4, RNA-binding protein pos-1 (Caenorhabditis elegans, UniProt G5EF15); test: disruptors of C. elegans POS-1 RNA interaction – biochemical, fluorescence polarization, dose response (AID 1964);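 also: purified POS-1 fused to maltose binding protein made in E. coli; potency of compounds blocking POS-1 binding to fluorescent RNA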
# T4 sequence (G5EF15 whole entry): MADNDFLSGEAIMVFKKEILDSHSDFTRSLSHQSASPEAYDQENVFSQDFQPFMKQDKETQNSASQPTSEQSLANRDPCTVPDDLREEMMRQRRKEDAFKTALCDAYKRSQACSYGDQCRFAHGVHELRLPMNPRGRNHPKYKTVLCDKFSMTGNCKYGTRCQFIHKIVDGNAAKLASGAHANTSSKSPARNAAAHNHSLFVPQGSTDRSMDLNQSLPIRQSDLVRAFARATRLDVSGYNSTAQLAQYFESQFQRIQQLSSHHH
# [6] = molecular target: T5, Zinc finger protein mex-5 (Caenorhabditis elegans, UniProt Q9XUB2); test: potency of MEX-5 RNA-binding blockers – biochemical, C. elegans, fluorescence polarization, dose response (AID 1960)
# T5 sequence (Q9XUB2 whole entry): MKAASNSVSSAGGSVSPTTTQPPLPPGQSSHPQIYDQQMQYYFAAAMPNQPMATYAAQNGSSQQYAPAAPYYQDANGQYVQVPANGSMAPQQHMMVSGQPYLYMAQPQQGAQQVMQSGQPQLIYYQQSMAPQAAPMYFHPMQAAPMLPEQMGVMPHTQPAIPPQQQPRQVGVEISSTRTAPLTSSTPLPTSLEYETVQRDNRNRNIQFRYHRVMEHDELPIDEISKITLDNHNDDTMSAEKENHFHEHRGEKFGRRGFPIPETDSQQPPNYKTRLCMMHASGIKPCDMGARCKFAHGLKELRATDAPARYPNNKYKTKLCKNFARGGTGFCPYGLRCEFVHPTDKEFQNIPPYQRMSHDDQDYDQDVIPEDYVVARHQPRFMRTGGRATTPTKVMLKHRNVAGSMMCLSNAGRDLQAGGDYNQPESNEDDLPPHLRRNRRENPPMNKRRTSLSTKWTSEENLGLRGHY
# [7] = molecular target: T6, Replicative DNA helicase DnaB (Mycobacterium tuberculosis, UniProt P9WMR3); test: DnaB intein splicing inhibitors, dose response, biochemical, cell-free fluorescence (AID 449749); assay type: functional
# T6 sequence (P9WMR3 whole entry): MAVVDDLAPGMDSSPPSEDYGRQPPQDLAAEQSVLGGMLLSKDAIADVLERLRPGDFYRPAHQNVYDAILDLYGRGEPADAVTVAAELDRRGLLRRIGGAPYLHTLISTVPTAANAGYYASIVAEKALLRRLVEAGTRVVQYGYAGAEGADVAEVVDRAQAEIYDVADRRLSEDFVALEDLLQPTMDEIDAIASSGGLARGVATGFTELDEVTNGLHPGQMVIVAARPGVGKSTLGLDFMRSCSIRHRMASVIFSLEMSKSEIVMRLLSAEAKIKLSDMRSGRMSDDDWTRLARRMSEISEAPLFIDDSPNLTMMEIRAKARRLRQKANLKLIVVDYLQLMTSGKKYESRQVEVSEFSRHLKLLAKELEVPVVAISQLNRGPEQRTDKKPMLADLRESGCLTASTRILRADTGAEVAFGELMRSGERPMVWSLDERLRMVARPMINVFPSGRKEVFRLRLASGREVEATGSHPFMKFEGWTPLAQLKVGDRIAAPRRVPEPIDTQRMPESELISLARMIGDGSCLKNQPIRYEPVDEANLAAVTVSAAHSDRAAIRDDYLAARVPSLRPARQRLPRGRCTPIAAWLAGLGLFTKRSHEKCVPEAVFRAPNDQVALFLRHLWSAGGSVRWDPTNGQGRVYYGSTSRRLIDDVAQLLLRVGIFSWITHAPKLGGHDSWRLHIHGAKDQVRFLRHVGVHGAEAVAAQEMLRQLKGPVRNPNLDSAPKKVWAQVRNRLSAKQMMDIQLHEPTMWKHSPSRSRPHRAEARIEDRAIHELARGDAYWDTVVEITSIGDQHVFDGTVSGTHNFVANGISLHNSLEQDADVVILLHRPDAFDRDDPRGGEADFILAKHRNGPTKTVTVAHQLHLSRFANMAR
# P388/ADR = test: cells; assay type: functional; conditions: Mus musculus
# SN12K1 = test: cells; assay type: functional; conditions: Homo sapiens
# P388 = test: cells; assay type: functional; conditions: Mus musculus
# [8] = intracellular Trypanosoma cruzi inhibitors in host cells – cell-based, plate reader, cherry-pick samples, set 3, dose response (AID 651818); assay type: functional;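 also: compounds incubated with infected cells for about four days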
# Genome polyprotein, sequence (P29990 2492-3391 limits assumed): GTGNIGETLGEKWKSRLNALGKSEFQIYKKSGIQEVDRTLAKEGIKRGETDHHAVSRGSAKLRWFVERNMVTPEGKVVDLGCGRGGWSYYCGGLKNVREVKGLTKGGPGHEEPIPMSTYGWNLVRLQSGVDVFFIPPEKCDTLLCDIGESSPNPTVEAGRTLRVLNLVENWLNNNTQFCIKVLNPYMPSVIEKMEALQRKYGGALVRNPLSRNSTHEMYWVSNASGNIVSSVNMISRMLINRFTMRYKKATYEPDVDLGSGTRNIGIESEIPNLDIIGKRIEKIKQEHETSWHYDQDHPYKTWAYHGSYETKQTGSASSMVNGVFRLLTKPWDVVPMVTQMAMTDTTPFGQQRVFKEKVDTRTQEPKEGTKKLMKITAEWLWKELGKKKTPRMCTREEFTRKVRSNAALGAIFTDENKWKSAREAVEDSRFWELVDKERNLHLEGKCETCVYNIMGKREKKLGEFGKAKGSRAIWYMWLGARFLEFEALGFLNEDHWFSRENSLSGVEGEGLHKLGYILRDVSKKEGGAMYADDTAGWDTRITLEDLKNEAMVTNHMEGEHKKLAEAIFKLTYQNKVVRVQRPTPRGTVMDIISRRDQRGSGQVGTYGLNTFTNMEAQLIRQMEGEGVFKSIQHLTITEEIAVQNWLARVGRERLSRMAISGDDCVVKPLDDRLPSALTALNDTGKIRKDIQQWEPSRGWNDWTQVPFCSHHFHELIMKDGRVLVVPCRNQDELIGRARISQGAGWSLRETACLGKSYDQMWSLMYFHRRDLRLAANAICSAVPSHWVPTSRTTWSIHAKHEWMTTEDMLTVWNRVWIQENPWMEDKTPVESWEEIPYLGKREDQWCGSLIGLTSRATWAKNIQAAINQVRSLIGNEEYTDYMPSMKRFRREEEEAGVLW
# Induced myeloid leukemia cell differentiation protein Mcl-1, sequence (Q07820 whole entry): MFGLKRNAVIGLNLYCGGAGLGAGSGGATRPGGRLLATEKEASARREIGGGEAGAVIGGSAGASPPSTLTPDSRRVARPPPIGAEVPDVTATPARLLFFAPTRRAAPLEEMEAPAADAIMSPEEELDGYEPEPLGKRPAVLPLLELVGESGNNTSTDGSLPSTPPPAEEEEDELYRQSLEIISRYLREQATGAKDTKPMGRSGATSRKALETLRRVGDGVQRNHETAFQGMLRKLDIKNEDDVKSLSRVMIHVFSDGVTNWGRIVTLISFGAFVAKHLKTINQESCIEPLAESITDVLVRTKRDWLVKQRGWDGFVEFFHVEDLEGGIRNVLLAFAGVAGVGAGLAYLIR
Structure (SMILES),EC50 [2],GI50 (P388/ADR),GI50 (SN12K1),GI50 (P388),also measured
CC(=O)N1CCN(c2ccccc2NC(=O)c2cccs2)CC1,1.68 µM (active),,,,EC50 [1]: > 150 µM (not active); EC50 (Streptokinase A): > 150 µM (not active); EC50 (Streptococcus): > 150 µM (not active)
CCOC(=O)C1(CCOC)CCN(C(C)CCc2ccc(OC)cc2)CC1 (stereo not given),4.22 µM (active),,,,
CCCCNC(=O)c1ccc2nc(-c3ccco3)c(-c3ccco3)nc2c1,,,,,IC50 [3]: 6.65 µM (active); IC50 (Genome polyprotein): 80.4 µM (active); IC50 [4]: 3.77 µM (active)
CCCc1nc2ccccc2n1Cc1ccccc1OC,6.68 µM (active),,,,
COC(=O)Cn1cc(C=C2C(=O)NC(=O)NC2=O)c2ccccc21,,,,,EC50 [5]: > 300 µM (not active); EC50 [6]: > 300 µM (not active); IC50 (Genome polyprotein): 25.7 µM (active)
COc1cc(C=C2C(=O)NC(=O)NC2=O)ccc1OS(=O)(=O)c1ccccc1[N+](=O)[O-],,,,,IC50 (Genome polyprotein): 37.7 µM (active)
Cc1ccc(N(C(=O)c2snc(C(N)=O)c2N)C(C(=O)NCC2CCCO2)c2ccc(C)o2)c(C)c1 (stereo not given),1.68 µM (active),,,,
N=C(Cc1cccc2ccccc12)NOC(=O)c1cccs1,0.596 µM (active),,,,AC50 [7]: 5.96 µM (active)
Cc1sc(C(C2C(=O)CC(C)(C)CC2=O)C2C(=O)CC(C)(C)CC2=O)cc1[N+](=O)[O-],,,,,IC50 (Genome polyprotein): 29.4 µM (active)
O=[N+]([O-])c1cccc(N(CC(O)CN2CCCC2)S(=O)(=O)c2ccccc2)c1 (stereo not given),10.6 µM (active),,,,
CCS(=O)(=O)Nc1ccc(Nc2c3ccccc3nc3ccccc23)c(OC)c1,,0.0955 µM (active),0.51 µM (active),< 0.01 µM (active),
Cc1cc(/N=N/c2ccc(/N=N/c3c(O)c(S(=O)(=O)O)cc4cc(S(=O)(=O)O)ccc34)cc2C)ccc1/N=N/c1ccc2cc(S(=O)(=O)O)cc(S(=O)(=O)O)c2c1,,26.5 µM (inactive),> 100 µM (inactive),42.8 µM (inactive),
O=C(CCN1CCOCC1)C(=Cc1ccccc1)C(=O)CCN1CCOCC1,,0.255 µM (active),2.32 µM (inactive),0.392 µM (active),
ClCCN(CC#CCCCC#CCN(CCCl)CCCl)CCCl,,2.44 µM (inactive),10 µM (inactive),0.736 µM (active),
O=C(NC/C=C/CO)c1ccccc1,,> 100 µM (inactive),> 100 µM (inactive),> 100 µM (inactive),
COc1ccc(NC(=O)Nc2ccc3c(c2)CC(=O)N([C@@H](C)CO)C[C@@H](C)[C@@H](CN(C)Cc2ccc(C(F)(F)F)cc2)O3)cc1,,,,,AC50 [8]: 4.62 µM (active)
Cc1ccc(S(=O)(=O)N(C)C[C@H]2Oc3c(NC(=O)Nc4ccc5c(c4)OCO5)cccc3C(=O)N([C@H](C)CO)C[C@@H]2C)cc1,,,,,AC50 [8]: 6.64 µM (active)
Cc1ccc(/C=C/C(=O)c2ccc(O)cc2)cc1,3.35 µM (active),,,,
CC(C)C[C@H](NC(=O)[C@H](CC(C)C)NC(=O)[C@@H](Cc1c[nH]c2ccccc12)NC(=O)[C@H](Cc1ccccc1)NC(=O)[C@@H](Cc1c[nH]c2ccccc12)NC(=O)[C@H](CCC(N)=O)NC(=O)[C@@H](CCC(N)=O)NC(=O)[C@@H]1CCCN1C(=O)[C@@H](CCCCN)NC(=O)[C@H]1CCCN1C(=O)[C@H](N)CCCN=C(N)N)C(N)=O (H-[dR][dP][dK]P[dQ]Q[dW]F[dW]LL-NH2),,> 100 µM (inactive),> 100 µM (inactive),> 79.8 µM (inactive),
CC1NC(=O)CNC(=O)CNC(=O)C(Cc2ccc(O)cc2)NC(=O)C(C(C)C)NC(=O)C(C)NC1=O (stereo not given) (cyclo(GGAAVY); configuration not given here),,> 100 µM (inactive),> 100 µM (inactive),> 100 µM (inactive),
CC[C@H]1CN2CCc3cc(OC)c(OC)cc3[C@@H]2C[C@@H]1C[C@H]1NCCc2c1[nH]c1ccc(O)cc21 [TUBULOSINE],,0.493 µM (active),< 0.01 µM (active),< 0.01 µM (active),
